These results are taken from ChEMBL document CHEMBL1212709, “Design of isoform-selective phospholipase D inhibitors that modulate cancer cell invasiveness” (Nat Chem Biol, 2009).

The IC50 is the point on the concentration scale where inhibition reaches its midpoint.

Experiment [1] has as its target T1, Phospholipase D1 (Homo sapiens, UniProt Q13393).
T1 sequence (Q13393 whole entry): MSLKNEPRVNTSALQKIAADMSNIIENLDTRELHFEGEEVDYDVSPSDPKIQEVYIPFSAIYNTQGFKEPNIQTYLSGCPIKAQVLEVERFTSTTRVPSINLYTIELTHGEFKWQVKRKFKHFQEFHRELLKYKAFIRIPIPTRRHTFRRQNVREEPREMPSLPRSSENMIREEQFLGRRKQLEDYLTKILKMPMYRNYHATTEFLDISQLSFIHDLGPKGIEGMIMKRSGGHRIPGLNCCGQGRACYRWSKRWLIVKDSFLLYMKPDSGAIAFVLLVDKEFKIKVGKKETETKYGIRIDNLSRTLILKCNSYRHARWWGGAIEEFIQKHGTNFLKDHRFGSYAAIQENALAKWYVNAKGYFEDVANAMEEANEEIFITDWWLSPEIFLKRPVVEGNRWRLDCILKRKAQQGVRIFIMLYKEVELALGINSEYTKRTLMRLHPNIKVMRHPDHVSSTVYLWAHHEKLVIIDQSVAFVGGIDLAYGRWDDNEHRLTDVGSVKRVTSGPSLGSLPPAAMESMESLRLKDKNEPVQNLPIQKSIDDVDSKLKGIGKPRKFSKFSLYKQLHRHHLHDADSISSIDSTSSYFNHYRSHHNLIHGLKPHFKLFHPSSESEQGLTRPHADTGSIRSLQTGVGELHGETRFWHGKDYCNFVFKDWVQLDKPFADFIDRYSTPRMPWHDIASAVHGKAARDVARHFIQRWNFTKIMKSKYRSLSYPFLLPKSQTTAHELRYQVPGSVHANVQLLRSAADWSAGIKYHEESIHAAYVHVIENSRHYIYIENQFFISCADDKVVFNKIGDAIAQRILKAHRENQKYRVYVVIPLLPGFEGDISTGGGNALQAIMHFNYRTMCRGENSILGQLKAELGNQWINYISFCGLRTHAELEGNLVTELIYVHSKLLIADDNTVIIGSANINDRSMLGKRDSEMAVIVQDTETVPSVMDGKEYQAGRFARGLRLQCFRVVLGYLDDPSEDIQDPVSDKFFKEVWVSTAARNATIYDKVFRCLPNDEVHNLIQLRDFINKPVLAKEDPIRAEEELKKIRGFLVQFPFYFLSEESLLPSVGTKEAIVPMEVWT
Description: Inhibition of human PLD1 assessed as release of methyl-[3H]choline from choline-methyl-[3H]dipalmitoylphosphatidylcholine after 30 mins by exogenous substrate assay.

Experiment [2] addresses T2, Phospholipase D2 (Homo sapiens, UniProt O14939). The experiment can be described thus: Inhibition of human PLD2 assessed as release of methyl-[3H]choline from choline-methyl-[3H]dipalmitoylphosphatidylcholine after 30 mins by exogenous substrate assay.
Experiment [3] has as its target T2, Phospholipase D2. The experiment can be described thus: Inhibition of GFP-tagged human PLD2 expressed in human HEK293 cells assessed as decrease in phosphatidylbutanol-[d9] production after 30 mins by mass spectrometric analysis. Type of experiment: cell-based.
Experiment [4] concerns the target T3, Phospholipase D1 (Rattus norvegicus, UniProt P70496).
T3 sequence (P70496 whole entry): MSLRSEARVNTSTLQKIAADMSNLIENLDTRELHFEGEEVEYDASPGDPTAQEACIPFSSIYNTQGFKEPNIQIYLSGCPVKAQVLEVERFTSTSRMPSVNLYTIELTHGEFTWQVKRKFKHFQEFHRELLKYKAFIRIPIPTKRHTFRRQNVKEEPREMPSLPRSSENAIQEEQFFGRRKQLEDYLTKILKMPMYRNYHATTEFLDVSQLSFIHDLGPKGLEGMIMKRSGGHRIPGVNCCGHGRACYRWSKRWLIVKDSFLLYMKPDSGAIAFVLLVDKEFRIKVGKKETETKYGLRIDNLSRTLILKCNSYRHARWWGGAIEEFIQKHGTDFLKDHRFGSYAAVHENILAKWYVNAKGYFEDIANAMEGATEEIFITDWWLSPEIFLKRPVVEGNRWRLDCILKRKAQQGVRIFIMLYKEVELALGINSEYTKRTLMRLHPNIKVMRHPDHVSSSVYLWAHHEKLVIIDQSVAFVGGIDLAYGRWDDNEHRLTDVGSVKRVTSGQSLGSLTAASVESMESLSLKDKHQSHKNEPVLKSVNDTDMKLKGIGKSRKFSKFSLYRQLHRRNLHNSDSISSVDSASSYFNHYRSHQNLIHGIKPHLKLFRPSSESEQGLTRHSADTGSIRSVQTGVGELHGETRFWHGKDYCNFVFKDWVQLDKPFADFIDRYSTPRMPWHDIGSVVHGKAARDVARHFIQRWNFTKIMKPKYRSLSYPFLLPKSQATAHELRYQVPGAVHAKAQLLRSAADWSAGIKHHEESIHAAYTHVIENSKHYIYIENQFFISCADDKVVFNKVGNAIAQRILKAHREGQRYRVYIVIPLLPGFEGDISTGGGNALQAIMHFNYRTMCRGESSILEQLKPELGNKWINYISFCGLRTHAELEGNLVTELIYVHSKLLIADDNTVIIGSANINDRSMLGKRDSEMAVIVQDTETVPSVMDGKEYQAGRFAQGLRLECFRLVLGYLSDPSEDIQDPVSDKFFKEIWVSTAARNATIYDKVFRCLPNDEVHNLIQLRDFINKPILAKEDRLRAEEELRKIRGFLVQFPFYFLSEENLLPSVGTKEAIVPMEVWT
The experiment can be described thus: Inhibition of N-terminally truncated rat PLD1 assessed as release of methyl-[3H]choline from choline-methyl-[3H]dipalmitoylphosphatidylcholine after 30 mins by exogenous substrate assay.

The target in experiment [5] is T1, Phospholipase D1.
Experiment [6] is described as follows: Inhibition of PLD.
Experiment [7] in a line: Inhibition of in Streptomyces chromofuscus PLD.
Experiment [8] deals with T1, Phospholipase D1. Description: Inhibition of human PLD1b.

T2 sequence (O14939 whole entry): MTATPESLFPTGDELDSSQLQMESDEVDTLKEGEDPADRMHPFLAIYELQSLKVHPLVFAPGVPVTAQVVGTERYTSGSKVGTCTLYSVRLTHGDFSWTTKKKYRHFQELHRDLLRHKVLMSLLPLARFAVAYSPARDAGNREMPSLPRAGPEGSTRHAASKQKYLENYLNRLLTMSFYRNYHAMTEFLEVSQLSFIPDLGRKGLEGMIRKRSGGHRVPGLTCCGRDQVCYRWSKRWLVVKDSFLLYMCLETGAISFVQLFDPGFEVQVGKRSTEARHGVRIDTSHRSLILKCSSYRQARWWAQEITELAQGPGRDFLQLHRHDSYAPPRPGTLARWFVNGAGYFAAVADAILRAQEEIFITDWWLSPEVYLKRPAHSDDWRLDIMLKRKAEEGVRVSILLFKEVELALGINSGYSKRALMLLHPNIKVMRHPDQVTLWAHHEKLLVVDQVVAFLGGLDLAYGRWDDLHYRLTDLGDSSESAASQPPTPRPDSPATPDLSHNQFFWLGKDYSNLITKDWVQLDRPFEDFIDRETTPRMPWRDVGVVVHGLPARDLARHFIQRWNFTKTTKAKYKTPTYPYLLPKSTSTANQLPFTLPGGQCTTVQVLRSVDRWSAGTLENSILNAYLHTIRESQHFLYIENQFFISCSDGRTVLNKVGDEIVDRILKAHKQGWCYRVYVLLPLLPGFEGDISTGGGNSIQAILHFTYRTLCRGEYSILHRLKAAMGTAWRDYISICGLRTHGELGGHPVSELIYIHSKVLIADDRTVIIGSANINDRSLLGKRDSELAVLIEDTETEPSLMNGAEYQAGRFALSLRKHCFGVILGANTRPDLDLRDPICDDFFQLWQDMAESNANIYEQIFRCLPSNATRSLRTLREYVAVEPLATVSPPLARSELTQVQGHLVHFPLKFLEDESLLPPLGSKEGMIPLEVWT

On to `O=C(NCCN1CCC(n2c(=O)[nH]c3ccccc32)CC1)c1cc(Br)c(Br)o1`, for which the IC50 at Phospholipase D1 [1] was 79 nM; on Phospholipase D2 [2], 170 nM; on Phospholipase D2 [3], 220 nM; on Phospholipase D1 [4], 2900 nM; on Phospholipase D1 [5], 8.9 nM.

As for `O=C(NCCN1CCC(n2c(O)nc3ccccc32)CC1)c1cccc2c1-c1ccccc1C2=O`, the half-inhibitory concentration (IC50) on Phospholipase D1 [1] came out at 260 nM; at Phospholipase D2 [2], 600 nM; at Phospholipase D2 [3] it was 1000 nM; at Phospholipase D1 [4], 1100 nM; on Phospholipase D1 [5] it was 20 nM.

As to `O=C(NCCN1CCC(n2c(O)nc3ccccc32)CC1)c1ccc(Cl)c(Cl)c1`, the IC50 on Phospholipase D1 [1] came to 46 nM; on Phospholipase D2 [2], 250 nM; at Phospholipase D2 [3], 220 nM; on Phospholipase D1 [4], 910 nM; on Phospholipase D1 [5], 19 nM.

In the case of `O=C(NCCN1CCC(n2c(O)nc3ccccc32)CC1)c1ccc(Cl)cc1`, the IC50 worked out at 55 nM at Phospholipase D1 [1]; 130 nM on Phospholipase D2 [2]; 140 nM on Phospholipase D2 [3]; 910 nM on Phospholipase D1 [4]; 6.3 nM at Phospholipase D1 [5].

In the case of `COc1ccc(C(=O)NCCN2CCC(n3c(=O)[nH]c4ccccc43)CC2)cc1`, the IC50 is 15000 nM on Phospholipase D1 [1]; > 20000 nM on Phospholipase D2 [2]; 1100 nM at Phospholipase D2 [3]; > 20000 nM at Phospholipase D1 [4]; 1000 nM on Phospholipase D1 [5].

As to `O=C(NCCN1CCC(n2c(=O)[nH]c3ccccc32)CC1)n1c2ccccc2c2ccccc21`, the IC50 on Phospholipase D1 [1] is 300 nM; on Phospholipase D2 [2], 1000 nM; at Phospholipase D2 [3], 260 nM; on Phospholipase D1 [4] it was 7200 nM; at Phospholipase D1 [5], 330 nM.

Take `O=C(c1ccc(F)cc1)N(CCN1CCC(n2c(=O)[nH]c3ccccc32)CC1)C(=O)c1ccc(F)cc1`: the IC50 on Phospholipase D1 [1] turned out to be 1400 nM; at Phospholipase D2 [2], 2200 nM; on Phospholipase D2 [3] it was 470 nM; on Phospholipase D1 [4], 870 nM; on Phospholipase D1 [5] it was 48 nM.

Turning to `Cc1ccc(C(=O)NCCN2CCC(n3c(O)nc4ccccc43)CC2)cc1`, the IC50 is 780 nM at Phospholipase D1 [1]; 1100 nM at Phospholipase D2 [2]; 210 nM on Phospholipase D2 [3]; 1700 nM on Phospholipase D1 [4]; 32 nM on Phospholipase D1 [5].

For `C=Cc1ccc(C(=O)NCCN2CCC(n3c(=O)[nH]c4ccccc43)CC2)cc1`, the IC50 was found to be 540 nM on Phospholipase D1 [1] and 79 nM on Phospholipase D1 [5].

In the case of `O=C(NCCN1CCC(n2c(=O)[nH]c3ccccc32)CC1)c1ccc[nH]1`, the IC50 on Phospholipase D1 [1] is 316 nM; at Phospholipase D2 [2], 1200 nM; at Phospholipase D2 [3], 340 nM; on Phospholipase D1 [4] it was 1500 nM; against Phospholipase D1 [5], 37 nM.

Consider `O=C(NCCN1CCC(n2c(=O)[nH]c3ccccc32)CC1)c1cc(Cl)cc(Cl)c1`, for which the IC50 on Phospholipase D1 [1] is 400 nM; at Phospholipase D2 [2], 1900 nM; at Phospholipase D2 [3], 1100 nM; on Phospholipase D1 [4] it was 3500 nM; against Phospholipase D1 [5], 85 nM.

For the molecule `O=C(NCCN1CCC2(CC1)C(=O)NCN2c1ccccc1)c1ccc(C(F)(F)F)cc1`, the IC50 at Phospholipase D2 [2] is 4300 nM; at Phospholipase D1 [4], > 20000 nM.

As to `CCC(=C(c1ccc(O)cc1)c1ccc(OCCN(C)C)cc1)c1ccccc1`, the IC50 stood at 28000 nM on Phospholipase D1 [4] and 4800 nM against Phospholipase D1 [5].

`O=C(NCCN1CCC(n2c(=O)[nH]c3ccccc32)CC1)c1cc2cc(F)ccc2[nH]1`: the IC50 at Phospholipase D1 [1] came out at 9.5 nM; at Phospholipase D2 [2], 17 nM; on Phospholipase D1 [4] it was 33 nM; on Phospholipase D1 [5], 1 nM.

On to `O=C(NCCN1CCC(n2c(=O)[nH]c3ccccc32)CC1)c1cc2ccccc2s1`, for which the IC50 is 100 nM on Phospholipase D1 [1]; 340 nM at Phospholipase D2 [2]; 210 nM at Phospholipase D2 [3]; 1000 nM at Phospholipase D1 [4]; 14 nM against Phospholipase D1 [5].

For the molecule `O=C(NCCN1CCC2(CC1)C(=O)NCN2c1ccccc1)c1ccc2ccccc2c1`, the IC50 on Phospholipase D1 [4] is > 20000 nM.

As for `O=C(c1ccc(OCCN2CCCCC2)cc1)c1c(-c2ccc(O)cc2)sc2cc(O)ccc12` [RALOXIFENE], the IC50 at Phospholipase D1 [1] was 4300 nM; on Phospholipase D2 [2] it was 3400 nM; at Phospholipase D2 [3] it was 10000 nM; at Phospholipase D1 [4], > 20000 nM; on Phospholipase D1 [5], 8500 nM.

Turning to `Oc1ccc(/C=C/c2cc(O)cc(O)c2)cc1` [RESVERATROL], the IC50 in experiment [6] was > 60000 nM.

`CC(C)=CCC/C(C)=C/CC/C(C)=C/[C@H]1[C@H](COP(=O)(O)OP(=O)(O)O)[C@@]1(C)CC/C=C(\C)CCC=C(C)C` [Z-PSDP]: the IC50 in experiment [7] was 100 nM; at Phospholipase D1 [8], > 1000 nM.
